# According to patent publication US7018987B1 (priority 1998, dated 2006):
# Where two headings read alike, the source gives them in different places.
# Legend:
# DU-145 = format: cell-based, Human
# FADU = format: cell-based, Human
# NCI-H460 = format: cell-based, Human
# SW1736 = format: cell-based, Human
# SK-N-SH = format: cell-based, Human
# BXPC-3 = format: cell-based, Human
# [1] = tested on: P388 lymphocytic leukemia; format: cell-based, Murine
# Micrococcus luteus = experiment: Disk susceptibility testing, Micrococcus luteus; format: cell-based
# Neisseria gonorrhoeae = format: cell-based
# [2] = tested on: eight bacteria and two fungi tested; experiment: Disk susceptibility testing, whole microbe panel; format: cell-based; details: disk susceptibility, bacteria and fungi tested
# Escherichia coli = details: disk susceptibility
# [3] = tested on: Stenotrophomonas maltophilia; details: disk susceptibility
# Enterobacter cloacae = details: disk susceptibility
# Streptococcus pneumoniae = details: disk susceptibility
# Staphylococcus aureus = details: disk susceptibility
# Enterococcus faecalis = details: disk susceptibility
# SK-Mel-3 = format: cell-based, Human
# tubulin = details: reported (Lin et al., 1988); cited from earlier work
# full-panel NCl screen = details: read-out: mean panel GI50 concentration; cited from earlier work
# Candida albicans = experiment: Disk susceptibility testing, Candida albicans; format: cell-based
# Cryptococcus neoformans = experiment: Disk susceptibility testing, Cryptococcus neoformans; format: cell-based
# Solubility in water = details: mg per 1 ml water at 25° C.
# [4] = murine P-388 leukemia, 48 hours
# [5] = Neisseria gonorrhoeae, disk susceptibility
Compound,"GI50 Prostate DU-145 (DU-145; DU-145, 48 hours)","GI50 Pharynx FADU (FADU; FADU, 48 hours)","GI50 Lung-NSC NCI-H460 (NCI-H460; NCI-H460, 48 hours)","GI50 Thyroid SW1736 (SW1736; SW1736, 48 hours)","GI50 Neuroblast SK-N-SH (SK-N-SH; SK-N-SH, 48 hours)","GI50 Pancreas BXPC-3 (BXPC-3; BXPC-3, 48 hours)","ED50 P-388 [1, 4]",Minimum inhibitory amount per disk (Micrococcus luteus),Minimum inhibitory amount per disk (Neisseria gonorrhoeae; [5]),antimicrobial growth inhibition (in words) [2],also measured
"COc1ccc(/C=C/c2cc(OC)c(OC)c(OC)c2)cc1O [Compound 4a, (E)-combretastatin A-4]",0.037 µg/mL,0.040 µg/mL,0.038 µg/mL,0.080 µg/mL,0.029 µg/mL,3.9 µg/mL,0.280 µg/mL,25–50 μg/disk,–,–,–
"CN(C)C1C(=O)C(C(N)=O)=C(O)C2(O)C(=O)C3=C(O)c4c(O)cccc4C(C)(O)C3CC12.COc1ccc(C=Cc2cc(OC)c(OC)c(OC)c2)cc1OP(=O)(O)O (stereo not shown) [Compound 5r, Tetracycline combretastatin A-4 3-O-phosphate]",0.058 µg/mL,0.0055 µg/mL,0.0046 µg/mL,0.012 µg/mL,0.0032 µg/mL,0.57 µg/mL,0.037 µg/mL,0.78–1.56 μg/disk,3.12–6.25 μg/disk,inhibited the growth of all Gram-negative and Gram-positive bacteria tested,Minimum inhibitory concentration (Escherichia coli): 3.12–6.25 μg/disk; Minimum inhibitory concentration [3]: 6.25–12.5 μg/disk; Minimum inhibitory concentration (Enterobacter cloacae): 3.12–6.25 μg/disk; Minimum inhibitory concentration (Streptococcus pneumoniae): 0.195–0.39 μg/disk; Minimum inhibitory concentration (Staphylococcus aureus): 0.195–0.39 μg/disk; Minimum inhibitory concentration (Enterococcus faecalis): 25–50 μg/disk
"Combretastatin A-4 [Compound 1a, reference compound]",–,–,–,–,–,–,–,–,–,–,GI50 Prostate DU-145 (DU-145): 0.00076 µg/mL; GI50 Pharynx FADU (FADU): 0.00065 µg/mL; GI50 Lung-NSC NCI-H460 (NCI-H460): 0.00056 µg/mL; GI50 Thyroid SW1736 (SW1736): 0.00071 µg/mL; GI50 Neuroblast SK-N-SH (SK-N-SH): 0.00026 µg/mL; GI50 Pancreas BXPC-3 (BXPC-3): >0.1 µg/mL; GI50 Melanoma SK-Mel-3 (SK-Mel-3): 0.0002 µg/mL; ED50 P-388 [1]: 0.00266 µg/mL; Minimum inhibitory amount per disk (Neisseria gonorrhoeae): 25–50 μg/disk; growth inhibition of Neisseria gonorrhoeae (in words) (Neisseria gonorrhoeae): inhibited growth; inhibition at the colchicine binding site of tubulin (tubulin): 97%; GI50 (full-panel NCl screen): 6.61 nM
Manganese combretastatin A-4 3′-O-phosphate [Compound 5e],<0.001 µg/mL,0.00091 µg/mL,0.0015 µg/mL,14.7 µg/mL,0.014 µg/mL,0.20 µg/mL,0.016 µg/mL,–,6.25–12.5 μg/disk,inhibitory to opportunistic fungi,"GI50 Melanoma SK-Mel-3 (SK-Mel-3; SK-Mel-3, 48 hours): 0.0036 µg/mL; Minimum inhibitory concentration (Candida albicans): 25–50 μg/disk; Minimum inhibitory concentration (Cryptococcus neoformans): 12.5–25 μg/disk; Solubility (Solubility in water): 3000 µg/mL"
